Legend:
NK cells = assay: Cytotoxic activity of spleen NK cells from orally treated mice against B16 melanoma cells (LDH release); assay type: in vivo, Balb/c mice; settings: oral daily for one week; lycopene 2 mg/day or resveratrol 4 mg/day
Method: NK cells were isolated from Balb/c mice spleen. Each group of mice were killed at day 7 post-feeding of lycopene/resveratrol. The spleens were excised and soaked in 75% ethanol for 5 min, and smeared gently on cell sieves. The single cells were collected by flushing the sieve with RPMI-1640 medium. The derived total spleen cells were isolated by centrifugation at 2000 rpm by placing the mixture on the top of lymphocyte separation solution for 25 min. The white-colored lymphocyte layer was recovered carefully, and washed twice with serum-free RPMI-1640 medium, counted and transferred into 6-well plates as the stock. The lymphocytes thus prepared contains 10-20% of NK cells, and used for NK cell assay [Ref. 18: Zhang (2006)].
The B16 melanoma was excised from a tumor-bearing C57 mouse, and soaked in Hank's medium for 30 min. The adipose and necrotic parts of the tumor were removed, and the tumor was cut into small pieces and treated with RPMI-1640 containing 0.1% type II […] at 4° C. for 12 h. […]
NK cells isolated from mice spleen were mixed with B16 melanoma cells at ratios of 25:1, 50:1 and 100:1, and incubated at 37° C. After 5 h, the lactate dehydrogenase (LDH) activities in 100 μl of culture media were measured as the cytolytic activity of NK cells. Cytotoxicity is calculated according to the following formula. […]

[1] = cited from earlier work

Structure (SMILES)	NK cytotoxicity change versus control (NK cells)	anti-oxidative activity, higher than vitamin E ([1]; relative to vitamin E)	anti-oxidative activity, higher than β-carotene ([1]; relative to β-carotene)
CC(C)=CCC/C(C)=C/C=C/C(C)=C/C=C/C(C)=C/C=C/C=C(C)/C=C/C=C(C)/C=C/C=C(\C)CCC=C(C)C [lycopene]	slight increase (not significantly)	100 folds	3.2 folds
Oc1ccc(C=Cc2cc(O)cc(O)c2)cc1 [resveratrol]	slight increase (not significantly)		
